Data from patent US10172549B2, “Methods of facilitating positioning of electrodes” (Cardionomic, Inc., priority 2016, dated 2019).

System: right ventricle contractility and left ventricle contractility
Test: Heartbeat-by-heartbeat correlation of right and left ventricle contractility after a change, max(dP/dt) from pressure sensors as surrogate for contractility
Format: in vivo, ovine
Settings: after injection
Text: The correlation was a heartbeat-by-heartbeat analysis. Pressure measurements, taken by a Millar catheter comprising a MEMS pressure sensor, in units of max(dP/dt) was used as a surrogate for contractility.
The first change, a dobutamine injection, provided a very high contractility increase greater than 500%. The average correlation between right ventricle contractility and left ventricle contractility was very good at 0.91, where 1.00 is a perfect correlation. Accordingly, if a subject is given a dobutamine injection, measuring changes to right ventricle contractility can provide accurate information about changes to left ventricle contractility. The first change was repeated three times.
The second change, calcium injection at 5 mL, provided a contractility increase of about 20%. […] The average correlation between right ventricle contractility and left ventricle contractility using a Millar (MEMS) sensor on a catheter was very good at 0.91. The average correlation between right ventricle contractility and left ventricle contractility using a fluid-filled lumen of a Swan-Ganz catheter in communication with an external pressure sensor was also very good at 0.87. Accordingly, under certain circumstances such as measurement of an animal (normal, non-HF ovine model) model, if a subject is given a calcium injection, measuring changes to right ventricle contractility with a MEMS sensor or a fluid filled lumen can provide accurate information about changes to left ventricle contractility.
The fourth change, neurostimulation as described herein, provided a contractility increase of about 28%. The correlation between right ventricle contractility and left ventricle contractility was very good at 0.90. Accordingly, if a subject is given neurostimulation, measuring changes to right ventricle contractility can provide accurate information about changes to left ventricle contractility. […] Thereafter, the left ventricle contractility tapered off logarithmically or exponentially, but the right ventricle contractility decreased very slowly. These differences help to show why the correlation between left ventricle contractility and right ventricle contractility are poorly correlated for calcium injections. The fourth change was not repeated.

| Compound | Contractility % Increase [%] | Contractility % Increase (listed as dobutamine injection) | Contractility % Increase (listed as calcium injection) |
| --- | --- | --- | --- |
| CC(CCc1ccc(O)cc1)NCCc1ccc(O)c(O)c1 (stereo not shown) [Dobutamine Injection, dobutamine] | >500 | greater than 500% |  |
| calcium [Calcium Injection] | ~20 |  | about 20% |
